# From PMC6243185 (The Korean Journal of Parasitology, 2018)
# Target: T1, AcCP (rAcCP) (Acanthamoeba castellanii, UniProt A1YJR6)
# T1 sequence (A1YJR6 44-330): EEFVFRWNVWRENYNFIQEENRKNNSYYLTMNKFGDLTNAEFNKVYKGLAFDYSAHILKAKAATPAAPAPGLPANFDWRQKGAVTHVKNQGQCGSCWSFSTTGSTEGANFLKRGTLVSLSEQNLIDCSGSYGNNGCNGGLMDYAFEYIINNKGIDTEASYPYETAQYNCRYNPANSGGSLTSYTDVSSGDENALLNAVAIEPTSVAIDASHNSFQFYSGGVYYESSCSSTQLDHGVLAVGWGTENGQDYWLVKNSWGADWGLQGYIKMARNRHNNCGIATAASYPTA
# Assay: inhibition of fluorogenic substrate hydrolysis
# Format: biochemical
# Settings: fully processed rAcCP; data not shown; covalent
compound,measurement,value
"CC(C)C[C@H](NC(=O)[C@H]1O[C@@H]1C(=O)O)C(=O)NCCCCN=C(N)N [E-64, trans-epoxy-succinyl-L-leucylamido(4-guanidino)-butane]",inhibition of fluorogenic substrate hydrolysis; active site titration,"The fully processed rAcCP was effectively inhibited by a cysteine protease inhibitor, E-64 (data not shown)"
